Patent US20140030712A1, “GENOMIC APPROACH TO THE IDENTIFICATION OF BIOMARKERS FOR ANTIBIOTIC RESISTANCE AND SUSCEPTIBILITY IN CLINICAL ISOLATES OF BACTERIAL PATHOGENS” (priority 2011, published 2014)
In brackets after ≈: the same amount, converted by molar mass. Like-named read-outs stand apart in the source and are kept apart here.

Tests used:
[1] = test system: E. coli clinical isolates; assay: microbe, parasite or virus in culture; type: cell-based; settings: Escherichia coli
Description: Clinical isolate collection and antibiotic resistance determination. […] Hospital-derived qualitative antibiotic susceptibility status denoted each isolate as susceptible (S), intermediate resistant (I), or resistance (R) to the drugs listed in Table 1. Quantitative MICs for the fluoroquinolones ciprofloxacin (CIP), gatifloxacin (GAT), levofloxacin (LVX), and norfloxacin (NOR) were determined in our laboratory as described (LBB).

[2] = test system: E. coli BW25113 K-12 strain; settings: deletion of any of three cryptic prophages (rac, e14, CP4-6); cited from earlier work
[3] = pool H01, n=2 isolates, MDR ≧5, read-out: Fluoroquinolone MIC
[4] = pool H02, n=5 isolates, MDR ≧3, read-out: Fluoroquinolone MIC
[5] = pool H03, n=5 isolates, MDR ≧3, read-out: Fluoroquinolone MIC
[6] = pool M01, n=10 isolates, MDR ≧3, read-out: Fluoroquinolone MIC
[7] = pool M02, n=10 isolates, MDR ≧5, read-out: Fluoroquinolone MIC
[8] = pool M03, n=13 isolates, no MDR, read-out: Fluoroquinolone MIC
[9] = pool M04, n=23 isolates, no MDR, read-out: Fluoroquinolone MIC
[10] = pool M05, n=16 isolates, MDR ≧5, read-out: Fluoroquinolone MIC
[11] = pool M06, n=13 isolates, MDR ≧3, read-out: Fluoroquinolone MIC
[12] = pool M07, n=33 isolates, MDR ≧3, read-out: Fluoroquinolone MIC
[13] = pool M08, n=3 isolates, No MDR, read-out: Fluoroquinolone MIC
[14] = pool M09, n=3 isolates, MDR ≧3, read-out: Fluoroquinolone MIC
[15] = pool M10, n=5 isolates, MDR ≧5, read-out: Fluoroquinolone MIC
[16] = pool M11, n=5 isolates, MDR ≧3, read-out: Fluoroquinolone MIC
[17] = pool S01, n=9 isolates, no MDR, read-out: Fluoroquinolone MIC
[18] = pool S02, n=9 isolates, no MDR, read-out: Fluoroquinolone MIC

In the case of `COc1c(N2CCNC(C)C2)c(F)cc2c(=O)c(C(=O)O)cn(C3CC3)c12` (centres unmarked) [GAT, gatifloxacin], the MIC [1, 3] is reported as 10 to 30 µg/mL (≈ 26.6 to 79.9 µM), the MIC [1, 4] is reported as 10 to 30 µg/mL (≈ 26.6 to 79.9 µM) and the MIC [1, 5] is reported as 50 to 200 µg/mL (≈ 133 to 533 µM). For the same compound, the MIC [1, 6] was 10 to 30 µg/mL (≈ 26.6 to 79.9 µM), the MIC [1, 7] was 10 to 30 µg/mL (≈ 26.6 to 79.9 µM) and the MIC [1, 8] was 8 to 30 µg/mL (≈ 21.3 to 79.9 µM). It also gave an MIC [1, 9] of 30 to 100 µg/mL (≈ 79.9 to 266 µM), an MIC [1, 10] of 10 to 20 µg/mL (≈ 26.6 to 53.3 µM) and an MIC [1, 11] of 10 to 20 µg/mL (≈ 26.6 to 53.3 µM). The MIC [1, 12] was 10 µg/mL (≈ 26.6 µM), the MIC [1, 13] was 100 to 300 µg/mL (≈ 266 to 799 µM) and the MIC [1, 14] was 20 µg/mL (≈ 53.3 µM). It also gave an MIC [1, 15] of 20 to 100 µg/mL (≈ 53.3 to 266 µM), an MIC [1, 16] of 10 to 50 µg/mL (≈ 26.6 to 133 µM) and an MIC [1, 17] of 0.01 to 0.02 µg/mL (≈ 0.0266 to 0.0533 µM). For the same compound, the MIC [1, 18] was 0.01 to 0.09 µg/mL (≈ 0.0266 to 0.24 µM).
For `CCn1cc(C(=O)O)c(=O)c2cc(F)c(N3CCNCC3)cc21` [NOR, norfloxacin], the MIC [1, 3] was 1000 µg/mL (≈ 3130 µM), the MIC [1, 4] was 400 to 1000 µg/mL (≈ 1250 to 3130 µM) and the MIC [1, 5] was 400 to 1000 µg/mL (≈ 1250 to 3130 µM). It also gave an MIC [1, 6] of 200 to 700 µg/mL (≈ 626 to 2190 µM), an MIC [1, 7] of 200 to 700 µg/mL (≈ 626 to 2190 µM) and an MIC [1, 8] of 50 to 200 µg/mL (≈ 157 to 626 µM). For the same compound, the MIC [1, 9] was 200 to 700 µg/mL (≈ 626 to 2190 µM), the MIC [1, 10] was 50 to 300 µg/mL (≈ 157 to 939 µM) and the MIC [1, 11] was 200 to 400 µg/mL (≈ 626 to 1250 µM). It also gave an MIC [1, 12] of 50 to 200 µg/mL (≈ 157 to 626 µM), an MIC [1, 13] of 100 to 200 µg/mL (≈ 313 to 626 µM) and an MIC [1, 14] of 100 to 200 µg/mL (≈ 313 to 626 µM). For the same compound, the MIC [1, 15] was 50 to 500 µg/mL (≈ 157 to 1570 µM), the MIC [1, 16] was 50 to 200 µg/mL (≈ 157 to 626 µM) and the MIC [1, 17] was 0.03 to 0.09 µg/mL (≈ 0.0939 to 0.282 µM). For the same compound, the MIC [1, 18] was 0.04 to 0.34 µg/mL (≈ 0.125 to 1.06 µM) and the MIC ([1]; pools denoted "H", read-out: norfloxacin MICs) was > 1000 µg/mL.
`C[C@H]1COc2c(N3CCN(C)CC3)c(F)cc3c(=O)c(C(=O)O)cn1c23` [LVX, levofloxacin] showed an MIC [1, 3] of 10 to 200 µg/mL (≈ 27.7 to 553 µM), an MIC [1, 4] of 40 to 50 µg/mL (≈ 111 to 138 µM) and an MIC [1, 5] of 100 µg/mL (≈ 277 µM). It also gave an MIC [1, 6] of 20 to 50 µg/mL (≈ 55.3 to 138 µM), an MIC [1, 7] of 20 to 50 µg/mL (≈ 55.3 to 138 µM) and an MIC [1, 8] of 8 to 30 µg/mL (≈ 22.1 to 83 µM). For the same compound, the MIC [1, 9] was 50 to 100 µg/mL (≈ 138 to 277 µM), the MIC [1, 10] was 30 to 50 µg/mL (≈ 83 to 138 µM) and the MIC [1, 11] was 30 to 100 µg/mL (≈ 83 to 277 µM). It also gave an MIC [1, 12] of 10 to 20 µg/mL (≈ 27.7 to 55.3 µM), an MIC [1, 13] of 50 to 200 µg/mL (≈ 138 to 553 µM) and an MIC [1, 14] of 10 to 20 µg/mL (≈ 27.7 to 55.3 µM). It also gave an MIC [1, 15] of 30 to 100 µg/mL (≈ 83 to 277 µM), an MIC [1, 16] of 20 to 50 µg/mL (≈ 55.3 to 138 µM) and an MIC [1, 17] of 0.02 to 0.07 µg/mL (≈ 0.0553 to 0.194 µM). The MIC [1, 18] was 0.03 to 0.17 µg/mL (≈ 0.083 to 0.47 µM).
In the case of `CCn1cc(C(=O)O)c(=O)c2ccc(C)nc21` [nalidixic acid], the “nalidixic acid MICs” value [2] is listed as “lowered”.
